Laboratory results published in US20250386824A1, “COMPOSITION OF AN ORGANIC SULFIDE COMBINED WITH GLUCOSE AND USE THEREOF IN CONTROLLING MELON FUSARIUM WILT” (CH BIOTECH R&D CO., LTD., priority 2024, published 2025).

Assays:
[1] = system: melon's third leaf; experiment: Chlorophyll fluorescence photosynthesis: electron transport rate (ETR) of melon's third leaf after foliar spraying; conditions: foliar spray, after 30 minutes of actinic light, mean ± SE, n=5
Experimental: In the following examples, a melon species Cucumis melo var. makuwa cv. Silver Light (Nongyou Seedling Co., Kaohsiung, Taiwan) is used as the test crop. Seeds of the test crop are stirred and rinsed in warm water at 65° C. for 20 minutes, then further stirred and rinsed with sterile water twice, each for 20 minutes, and then placed in a 25° C. incubator for germination for 48 hours. After the radicle has grown, the seedlings are sown in trays containing Sondermischung (perlite high) cultivating medium (Gramoflor, Germany). When the leaves are fully expanded, the seedlings are transplanted into 3.5-inch plastic pots (inner diameter: 9 cm) and continue planting. The melon plants are ready for following experiments when their first real leaves are fully expanded (the plant is about 7 days of age).
The compositions of 3% (w/v) glucose amended with 1% (w/v) an organic sulfide selected from allicin, dimethyl disulfide (DMDS), lipoic acid, methionine and taurine, with two hundred-fold and four hundred-fold dilution in water, are sprayed on the leaves of the melon seedlings, and the chlorophyll fluorescence photosynthesis of the third real leaf is investigated during the growing period of melons. […] The third real leaf of melon is clipped to measure the leaf chlorophyll fluorescence parameters. […]

[2] = system: Fusarium oxysporum f.sp. melonis; experiment: Greenhouse pot test: disease severity of melon Fusarium wilt after foliar spraying and root-cut inoculation; format: in vivo; conditions: Example 1, FIG. 1: 3% (w/v) glucose + 1% (w/v) organic sulfide, 400-fold dilution, foliar spray at 7 and 14 days of age; 3 weeks after inoculation; untreated control 2.33±0.21; mean ± SE
Experimental: Preparation of the inoculation source of Fusarium oxysporum f.sp. melonis (FOM): the soil-borne pathogen FOM strain used in the example is isolated from diseased melon plants in Wufeng District, Taichung City (24°02′24.6 ″N 120°39′55.0 ″E). The single spores of the strain are independently cultured on potato dextrose agar (PDA; Difco®) medium plates in a 25° C. incubator with 12 hours of light exposure per day. The mycelial pieces of the FOM strain are inoculated into ½ potato dextrose broth (PDB) and incubated in shaking flasks for 14 days. After the incubation, the culture is filtered through a double-layer Miracloth (475855 Calbiochem, Merk Darmstadt, Germany) to obtain a spore suspension with a concentration of 10^5 spores/mL, which is ready to be used in the pathogenic infection of melon root.
At the 24 hours after the final spraying, the root of test melon plants is washed with water to remove the cultivating medium. […] After 3 weeks, the symptoms and severity of wilt disease in melon plants are observed and recorded. […]
The disease severity is calculated by the following formula, wherein si represents the severity of wilt disease; n; represents the number of plants with various severity, and N represents the total number of plants investigated.
Statistical Analysis. The results are analyzed using RStudio v.4.3.0 (R) software. […]

Row | Compound | ETR (electron transport rate of PSII on third leaf of melon) ([1]; 200X dilution of 1% (w/v) organic sulfide with 3% (w/v) glucose) | ETR (electron transport rate of PSII on third leaf of melon) ([1]; 400X dilution of 1% (w/v) organic sulfide with 3% (w/v) glucose) | Disease severity of melon Fusarium wilt (scale 0-4) [2]
1 | CSSC [DMDS, dimethyl disulfide] | 110.24 ± 2.72 μmol electrons m^−2 s^−1 | 117.68 ± 3.83 μmol electrons m^−2 s^−1 | 1.83±0.25
2 | NCCS(=O)(=O)O [Taurine, 2-aminoethanesulfonic acid] |  |  | 2.00±0.18
